Assay results reported in patent US20260201008A1, “SECRETIN-DERIVED GLP1R SELECTIVE AGONISTS” (GUBRA A/S, priority 2023, published 2026).
Read-outs that look alike come from different tables or passages of the source. Numbered stars: 1 amine (or outer) side, 2 acyl side, 3 side chain; on linkers, the order of the positions; unused ones are H or OH. Square brackets hold non-standard residues; d marks the D form. Side chains are listed from the residue outwards. Peptide text beside a SMILES is read from it. * marks the point of attachment. C20 diacid = O=C(O)CCCCCCCCCCCCCCCCCCC(=O)*; γGlu = O=C(O)[C@H](CCC(=O)[*:2])N[*:1]; AEEA = NCCOCCOCC(=O)O; Aib = CC(C)(N)C(=O)O

What was measured:
GLP1R = GLP1R (Homo sapiens, UniProt P43220); assay: hGLP1R potency, cAMP accumulation in CHO-K1 cells stably overexpressing hGLP1R; format: cell-based; design: host or cells: CHO-K1; conditions: for EC50: cAMP accumulation; for SCTR EC50/GLP1R EC50 ratio: cAMP accumulation in CHO-K1 cells
Method in brief: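 Thawed cells go straight into buffer containing 0.5 mM IBMX and 0.05% casein, get graded compound doses for 30 min at room temperature, and are then assayed for accumulated cAMP by time-resolved FRET. Human GLP-1(7-36) serves as positive control; EC50 is derived by nonlinear regression.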

[1] = Fibril formation of crude library peptides (Thioflavin T); format: physicochemical; design: key: average ThT fluorescence emission at 480 nm (ex 450 nm), raw units; conditions: Physical stability of peptides
Method in brief: (§1)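 Crude peptides at 267 μM in 50 mM sodium acetate pH 4.0 or 50 mM sodium phosphate pH 7.0, pre-incubated 1-2 h at room temperature, then 4 μM final ThT added. Turbidity read first as A600. ThT fluorescence (ex 450/em 480 nm) read every 10 min for 72 h at 40° C, with 5 min shaking before each read; fibril formation = average emission.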

[2] = Turbidity of crude library peptides (absorbance at 600 nm); format: physicochemical; conditions: Physical stability of peptides
Method in brief: as §1

SCTR = SCTR (Homo sapiens, UniProt P47872); assay: hSCTR potency, cAMP accumulation in CHO-K1 cells stably overexpressing hSCTR; format: cell-based; design: alternatively Euroscreen ES-712-AF; FAST-0161L; host or cells: CHO-K1; conditions: cAMP accumulation
Method in brief: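 Read-out is TR-FRET cAMP detection, recorded one hour after reagent addition, in CHO-K1 cells stably overexpressing hSCTR. Cells in DPBS containing 0.05% casein and 0.5 mM IBMX are exposed to graded peptide doses for 30 min at room temperature, with human secretin as reference agonist.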

[3] = CHO-K1 cells overexpressing hGLP1R, read-out: hGLP1R pEC50 (converted)
[4] = selectivity for hGLP1R over hSCTR
[5] = CHO-K1 cells overexpressing hSCTR, read-out: hSCTR pEC50 (converted)
[6] = CHO-K1 cells stably overexpressing hGLP1R, read-out: hGLP1R potency (pEC50) (converted)
[7] = selectivity ratio, hSCTR vs hGLP1R
[8] = CHO-K1 cells stably overexpressing hSCTR, read-out: hSCTR potency (pEC50) (converted)

Sequence of GLP1R (P43220 24-463): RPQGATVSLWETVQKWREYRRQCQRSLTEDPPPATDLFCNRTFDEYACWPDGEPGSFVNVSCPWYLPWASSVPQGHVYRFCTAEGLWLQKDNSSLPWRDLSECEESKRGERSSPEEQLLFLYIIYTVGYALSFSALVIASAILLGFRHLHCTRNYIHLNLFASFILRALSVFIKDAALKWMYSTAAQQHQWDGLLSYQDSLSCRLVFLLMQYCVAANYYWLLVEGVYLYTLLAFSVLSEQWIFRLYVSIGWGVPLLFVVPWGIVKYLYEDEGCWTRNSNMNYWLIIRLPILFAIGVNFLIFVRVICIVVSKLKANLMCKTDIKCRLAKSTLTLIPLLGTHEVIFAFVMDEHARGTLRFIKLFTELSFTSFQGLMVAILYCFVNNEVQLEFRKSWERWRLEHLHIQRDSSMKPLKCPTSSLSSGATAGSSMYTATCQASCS
Sequence of SCTR (P47872 23-440): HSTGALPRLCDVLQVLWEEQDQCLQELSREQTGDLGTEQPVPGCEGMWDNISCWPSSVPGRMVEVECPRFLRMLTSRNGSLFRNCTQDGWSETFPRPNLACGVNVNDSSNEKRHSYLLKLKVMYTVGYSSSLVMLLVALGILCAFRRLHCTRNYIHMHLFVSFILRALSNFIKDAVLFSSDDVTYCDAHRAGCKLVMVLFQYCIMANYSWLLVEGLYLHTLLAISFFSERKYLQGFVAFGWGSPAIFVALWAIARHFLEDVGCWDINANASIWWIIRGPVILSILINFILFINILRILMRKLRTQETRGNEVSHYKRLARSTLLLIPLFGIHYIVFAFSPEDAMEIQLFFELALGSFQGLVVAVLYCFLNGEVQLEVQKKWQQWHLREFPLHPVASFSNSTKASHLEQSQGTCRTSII

SMILES	EC50 (GLP1R; [3]) [nM]	SCTR EC50/GLP1R EC50 ratio (GLP1R; [4])	Fibril formation [1]	Turbidity (pH 7) [2]	EC50 (SCTR; [5]) [nM]	EC50 (GLP1R; [6]) [nM]	SCTR EC50/GLP1R EC50 ratio (GLP1R; [7])	EC50 (SCTR; [8]) [nM]
CC(C)C[C@H](NC(=O)[C@H](Cc1ccccc1)NC(=O)[C@H](CCCNC(=N)N)NC(=O)[C@H](CCC(N)=O)NC(=O)[C@H](CC(C)C)NC(=O)C(C)(C)NC(=O)[C@H](C)NC(=O)[C@H](CCC(=O)O)NC(=O)[C@H](CCC(=O)O)NC(=O)[C@H](CCCCNC(=O)COCCOCCNC(=O)COCCOCCNC(=O)CC[C@H](NC(=O)CCCCCCCCCCCCCCCCCCC(=O)O)C(=O)O)NC(=O)[C@H](CC(C)C)NC(=O)[C@H](Cc1ccc(O)cc1)NC(=O)[C@H](CO)NC(=O)[C@@H](NC(=O)[C@H](CC(=O)O)NC(=O)[C@H](CO)NC(=O)[C@@H](NC(=O)[C@H](Cc1ccccc1)NC(=O)[C@@H](NC(=O)CNC(=O)[C@H](Cc1ccc(O)cc1)NC(=O)C(C)(C)NC(=O)[C@@H](N)Cc1c[nH]cn1)[C@@H](C)O)[C@@H](C)O)C(C)C)C(=O)N[C@@H](CCC(=O)O)C(=O)N[C@@H](Cc1c[nH]cn1)C(=O)N[C@@H](CC(C)C)C(=O)N[C@H](C(N)=O)C(C)C [compound 159] (H-H[Aib]YGTFTSDVSYLK([AEEA-AEEA-γGlu-C20 diacid])EEA[Aib]LQRFLEHLV-NH2)	0.794	34730	5426	0.08	25100			
CC[C@H](C)[C@H](NC(=O)[C@H](Cc1ccccc1)NC(=O)[C@H](CCCNC(=N)N)NC(=O)[C@H](CCC(N)=O)NC(=O)[C@H](CC(C)C)NC(=O)[C@H](C)NC(=O)[C@H](C)NC(=O)CNC(=O)[C@H](CCC(=O)O)NC(=O)[C@H](CC(C)C)NC(=O)[C@H](CC(C)C)NC(=O)[C@@H](NC(=O)[C@H](CO)NC(=O)[C@@H](NC(=O)[C@H](CC(=O)O)NC(=O)[C@H](CO)NC(=O)[C@@H](NC(=O)[C@H](Cc1ccccc1)NC(=O)[C@@H](NC(=O)CNC(=O)[C@H](CCC(=O)O)NC(=O)C(C)(C)NC(=O)[C@@H](N)Cc1c[nH]cn1)[C@@H](C)O)[C@@H](C)O)C(C)C)C(C)C)C(=O)N[C@@H](CCC(N)=O)C(=O)N[C@@H](Cc1c[nH]c2ccccc12)C(=O)N[C@@H](CC(C)C)C(=O)N[C@H](C(N)=O)C(C)C [compound 184] (H-H[Aib]EGTFTSDVSVLLEGAALQRFIQWLV-NH2)	0.0251	10252	260000	0.43	251			
CC[C@H](C)[C@H](NC(=O)C(C)(C)NC(=O)[C@@H](N)Cc1c[nH]cn1)C(=O)NCC(=O)N[C@H](C(=O)N[C@@H](Cc1ccccc1)C(=O)N[C@H](C(=O)N[C@@H](CO)C(=O)N[C@@H](CC(=O)O)C(=O)N[C@H](C(=O)N[C@@H](CO)C(=O)N[C@@H](Cc1ccc(O)cc1)C(=O)N[C@@H](CC(C)C)C(=O)N[C@@H](CCCCNC(=O)COCCOCCNC(=O)COCCOCCNC(=O)CC[C@H](NC(=O)CCCCCCCCCCCCCCCCCCC(=O)O)C(=O)O)C(=O)N[C@@H](CCC(=O)O)C(=O)N[C@@H](CCC(=O)O)C(=O)N[C@@H](C)C(=O)NC(C)(C)C(=O)N[C@@H](CC(C)C)C(=O)N[C@@H](CCC(N)=O)C(=O)N[C@@H](CCCNC(=N)N)C(=O)N[C@@H](Cc1ccccc1)C(=O)N[C@@H](CC(C)C)C(=O)N[C@@H](CCC(=O)O)C(=O)N[C@@H](Cc1c[nH]cn1)C(=O)N[C@@H](CC(C)C)C(=O)N[C@H](C(N)=O)C(C)C)C(C)C)[C@@H](C)O)[C@@H](C)O [compound 175] (H-H[Aib]IGTFTSDVSYLK([AEEA-AEEA-γGlu-C20 diacid])EEA[Aib]LQRFLEHLV-NH2)	0.0316	247885	3296	0.08	7940			
CC[C@H](C)[C@H](NC(=O)[C@H](Cc1ccccc1)NC(=O)[C@H](CCCNC(=N)N)NC(=O)[C@H](CCC(N)=O)NC(=O)[C@H](CC(C)C)NC(=O)[C@H](C)NC(=O)[C@H](C)NC(=O)CNC(=O)[C@H](CCC(=O)O)NC(=O)[C@H](CC(C)C)NC(=O)[C@H](CC(C)C)NC(=O)[C@H](Cc1ccccc1)NC(=O)[C@H](CO)NC(=O)[C@H](Cc1c[nH]c2ccccc12)NC(=O)[C@H](CC(=O)O)NC(=O)[C@H](CO)NC(=O)[C@@H](NC(=O)[C@H](Cc1ccccc1)NC(=O)[C@@H](NC(=O)CNC(=O)[C@H](CCC(=O)O)NC(=O)C(C)(C)NC(=O)[C@@H](N)Cc1c[nH]cn1)[C@@H](C)O)[C@@H](C)O)C(=O)N[C@@H](CCC(N)=O)C(=O)N[C@@H](Cc1c[nH]c2ccccc12)C(=O)N[C@@H](CC(C)C)C(=O)N[C@H](C(N)=O)C(C)C [compound 190] (H-H[Aib]EGTFTSDWSFLLEGAALQRFIQWLV-NH2)			260000	0.61		0.0631	1844	100

Further lines, results first:

EC50 (GLP1R; [3]) [nM]	SCTR EC50/GLP1R EC50 ratio (GLP1R; [4])	Fibril formation [1]	Turbidity (pH 7) [2]	EC50 (SCTR; [5]) [nM]	EC50 (GLP1R; [6]) [nM]	SCTR EC50/GLP1R EC50 ratio (GLP1R; [7])	EC50 (SCTR; [8]) [nM]	SMILES
0.00398	42658	10893	0.08	158				CC(C)C[C@H](NC(=O)[C@H](Cc1ccccc1)NC(=O)[C@H](CCCNC(=N)N)NC(=O)[C@H](CCC(N)=O)NC(=O)[C@H](CCC(N)=O)NC(=O)[C@H](C)NC(=O)[C@H](C)NC(=O)C(C)(C)NC(=O)[C@H](CCC(=O)O)NC(=O)[C@H](CCCCNC(=O)COCCOCCNC(=O)COCCOCCNC(=O)CC[C@H](NC(=O)CCCCCCCCCCCCCCCCCCC(=O)O)C(=O)O)NC(=O)[C@H](CC(C)C)NC(=O)[C@@H](NC(=O)[C@H](CO)NC(=O)[C@@H](NC(=O)[C@H](CC(=O)O)NC(=O)[C@H](CO)NC(=O)[C@@H](NC(=O)[C@H](Cc1ccccc1)NC(=O)[C@@H](NC(=O)CNC(=O)[C@H](CCC(=O)O)NC(=O)C(C)(C)NC(=O)[C@@H](N)Cc1c[nH]cn1)[C@@H](C)O)[C@@H](C)O)C(C)C)[C@@H](C)O)C(=O)N[C@@H](CCC(=O)O)C(=O)N[C@@H](Cc1c[nH]cn1)C(=O)N[C@@H](CC(C)C)C(=O)N[C@H](C(N)=O)C(C)C [compound 88] (H-H[Aib]EGTFTSDVSTLK([AEEA-AEEA-γGlu-C20 diacid])E[Aib]AAQQRFLEHLV-NH2)
		26948	0.13		0.0251	558	12.6	CC[C@H](C)[C@H](NC(=O)[C@H](Cc1ccccc1)NC(=O)[C@H](CCCNC(=N)N)NC(=O)[C@H](CCC(N)=O)NC(=O)[C@H](CC(C)C)NC(=O)[C@H](C)NC(=O)[C@H](C)NC(=O)CNC(=O)[C@H](CCC(=O)O)NC(=O)[C@H](CC(C)C)NC(=O)[C@H](CC(C)C)NC(=O)[C@H](CCC(=O)O)NC(=O)[C@H](CO)NC(=O)[C@H](Cc1c[nH]c2ccccc12)NC(=O)[C@H](CC(=O)O)NC(=O)[C@H](CO)NC(=O)[C@@H](NC(=O)[C@H](Cc1ccccc1)NC(=O)[C@@H](NC(=O)CNC(=O)[C@H](CCC(=O)O)NC(=O)C(C)(C)NC(=O)[C@@H](N)Cc1c[nH]cn1)[C@@H](C)O)[C@@H](C)O)C(=O)N[C@@H](CCC(N)=O)C(=O)N[C@@H](Cc1c[nH]c2ccccc12)C(=O)N[C@@H](CC(C)C)C(=O)N[C@H](C(N)=O)C(C)C [compound 193] (H-H[Aib]EGTFTSDWSELLEGAALQRFIQWLV-NH2)
7.94	1220	5327	0.12	10000				CC[C@H](C)[C@H](NC(=O)[C@H](Cc1ccccc1)NC(=O)[C@H](CCCNC(=N)N)NC(=O)[C@H](CCC(N)=O)NC(=O)[C@H](CC(C)C)NC(=O)[C@H](C)NC(=O)[C@H](C)NC(=O)CNC(=O)[C@H](CCC(=O)O)NC(=O)[C@H](CC(C)C)NC(=O)[C@H](CC(C)C)NC(=O)[C@@H](NC(=O)[C@H](CO)NC(=O)[C@@H]1CCCN1C(=O)[C@H](CC(=O)O)NC(=O)[C@H](CO)NC(=O)[C@@H](NC(=O)[C@H](Cc1ccccc1)NC(=O)[C@@H](NC(=O)CNC(=O)[C@H](CCC(=O)O)NC(=O)C(C)(C)NC(=O)[C@@H](N)Cc1c[nH]cn1)[C@@H](C)O)[C@@H](C)O)C(C)C)C(=O)N[C@@H](CCC(N)=O)C(=O)N[C@@H](Cc1c[nH]c2ccccc12)C(=O)N[C@@H](CC(C)C)C(=O)N[C@H](C(N)=O)C(C)C [compound 129] (H-H[Aib]EGTFTSDPSVLLEGAALQRFIQWLV-NH2)
